# According to patent US20250250299A1, “MACROCYCLIC IMMUNOMODULATORS” (Bristol-Myers Squibb Company, priority 2022, published 2025):
# Where a SMILES comes first, the peptide text is derived from it. Bridges are numbered along the chain shown (N, C = ends). [ ]: non-standard residue; d: D form. The star is where a group is joined. X1 = O=C(O)CCCCCCCCCCCCCCCCC(=O)N[C@@H](CCC(=O)NCCOCCOCCOCCOCCOCCOCCOCCOCCOCCOCCOCCn1cc(C*)nn1)C(=O)O; Phe(4-COOH) = N[C@@H](Cc1ccc(C(=O)O)cc1)C(=O)O; Phe(4-CH2NH2) = NCc1ccc(C[C@H](N)C(=O)O)cc1; Bip = N[C@@H](Cc1ccc(-c2ccccc2)cc1)C(=O)O; Phe(3-Me) = Cc1cccc(C[C@H](N)C(=O)O)c1; C12 diacid = O=C(O)CCCCCCCCCCC(=O)*; 4Pal = N[C@@H](Cc1ccncc1)C(=O)O; Cha = N[C@@H](CC1CCCCC1)C(=O)O; Carboxymethyl = O=C(O)C*; NMeA = CN[C@@H](C)C(=O)O; Nle = CCCC[C@H](N)C(=O)O; Orn = NCCC[C@H](N)C(=O)O; Dab = NCC[C@H](N)C(=O)O; Dap = NC[C@H](N)C(=O)O; AEEA = NCCOCCOCC(=O)O
# Target: T1, human PD-1 (Jurkat-PD-1 cells; binding of PE-labeled human PD-L1-Ig) (Homo sapiens, UniProt Q15116)
# T1 construct: expressed in transfected cells; host or cells: Jurkat (Jurkat-PD-1 / Jurkat-hPD-1)
# Test: Jurkat-PD-1 Cell Binding High-Content Screening Assay
# Conditions: not given
# Experimental: The ability of the compounds of formula (I) to bind to PD-1 was investigated using a Jurkat-PD-1 Cell Binding High-Content Screening Assay.
# Phycoerythrin (PE) was covalently linked to the Ig epitope tag of human PD-L1-Ig and fluorescently-labeled PD-L1-Ig was used for binding studies with a Jurkat cell line over-expressing human PD-1 (Jurkat-PD-1). Briefly, 8×10^3 Jurkat-hPD-1 cells were seeded into 384 well plates in 20 μl of DIVEM supplemented with 10% fetal calf serum. 100 nl of compound was added to cells followed by incubation at 37° C. for 2 h. Then, 5 μl of PE-labeled PD-L1-Ig (20 nM final), diluted in DiVEM supplemented with 10 fetal calf serum. After 1 hour incubation, cells were fixed with […] in dPBS containing 10 µg/mL Hoechst 33342 and then washed 3× in 100 μl dPB S. Data was collected and processed using a Cell Insight NXT High Content Imager and associated software.
# T1 sequence (Q15116 25-288): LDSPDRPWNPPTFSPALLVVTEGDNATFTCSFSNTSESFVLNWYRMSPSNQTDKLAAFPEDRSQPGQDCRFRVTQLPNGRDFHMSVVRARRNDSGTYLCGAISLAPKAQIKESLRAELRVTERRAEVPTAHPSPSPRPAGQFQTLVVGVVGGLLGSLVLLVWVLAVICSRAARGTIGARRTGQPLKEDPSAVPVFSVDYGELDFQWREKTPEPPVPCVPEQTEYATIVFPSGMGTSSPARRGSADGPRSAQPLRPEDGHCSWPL
row,Compound,IC50 [nM]
1,CCCC[C@@H]1NC(=O)CSC[C@@H](C(=O)N[C@@H](CCN)C(N)=O)NC(=O)[C@H](CCC(=O)O)NC(=O)[C@H](C(C)C)NC(=O)[C@H](CC2CCCCC2)NC(=O)[C@H](CCN)NC(=O)[C@@H](CC(C)C)NC(=O)[C@H](CCCN)NC(=O)[C@H](Cc2ccc(OCc3cn(CCOCCOCCOCCOCCOCCOCCOCCOCCOCCOCCOCCNC(=O)CC[C@H](NC(=O)CCCCCCCCCCCCCCCCC(=O)O)C(=O)O)nn3)cc2)NC(=O)[C@H](Cc2ccc(-c3ccccc3)cc2)NC(=O)[C@H](Cc2ccc(C(=O)O)cc2)NC(=O)[C@H](Cc2cccc(C)c2)NC(=O)[C@H](CC(=O)O)NC(=O)[C@H](Cc2ccc(C(=O)O)cc2)NC1=O [Compound 1028] ({CH2CO}-[Nle][Phe(4-COOH)]D[Phe(3-Me)][Phe(4-COOH)][Bip]Y(X1)[Orn][dL][Dab][Cha]VEC[Dab]-NH2; thioether N-14),430

# Same assay, conditions: Jurkat cell line over-expressing human PD-1; compound 2 h at 37° C., then PE-labeled PD-L1-Ig 20 nM final, 1 hour; read-out: Jurkat hPD1 PDL1 IC50
row,Compound,IC50 [nM]
1,Cc1cccc(C[C@@H]2NC(=O)[C@H](CC(=O)O)NC(=O)[C@H](Cc3ccc(OCC(=O)O)cc3)NC(=O)[C@H](CCNC(=O)CCCCCCCCCCC(=O)O)NC(=O)CSC[C@@H](C(N)=O)NC(=O)[C@H]([C@@H](C)O)NC(=O)[C@H](C(C)C)NC(=O)[C@H](CC3CCCCC3)NC(=O)[C@H](CCN)NC(=O)[C@@H](CC(C)C)NC(=O)[C@H](CCCN)NC(=O)[C@H](Cc3ccc(OCC(=O)O)cc3)NC(=O)[C@H](Cc3ccc(-c4ccccc4)cc3)NC(=O)[C@H](Cc3ccc(O)cc3)NC2=O)c1 [Compound 1034] ({CH2CO}-[Dab](C12 diacid)Y(Carboxymethyl)D[Phe(3-Me)]Y[Bip]Y(Carboxymethyl)[Orn][dL][Dab][Cha]VTC-NH2; thioether N-14),170
2,Cc1cccc(C[C@@H]2NC(=O)[C@H](CC(=O)O)NC(=O)[C@H](Cc3ccc(OCc4cn(CCOCCOCCOCCOCCOCCOCCOCCOCCOCCOCCOCCNC(=O)CC[C@H](NC(=O)CCCCCCCCCCCCCCCCC(=O)O)C(=O)O)nn4)cc3)NC(=O)[C@H](Cc3c[nH]cn3)NC(=O)CSC[C@@H](C(=O)N[C@@H](CCN)C(N)=O)NC(=O)[C@H](CCC(=O)O)NC(=O)[C@H](C(C)C)NC(=O)[C@H](CC3CCCCC3)NC(=O)[C@H](CCN)NC(=O)[C@@H](CC(C)C)NC(=O)[C@H](CCCN)NC(=O)[C@H](Cc3ccc(OCC(=O)O)cc3)NC(=O)[C@H](Cc3ccc(-c4ccccc4)cc3)NC(=O)[C@H](Cc3ccc(OCC(=O)O)cc3)NC2=O)c1 [Compound 1010] ({CH2CO}-HY(X1)D[Phe(3-Me)]Y(Carboxymethyl)[Bip]Y(Carboxymethyl)[Orn][dL][Dab][Cha]VEC[Dab]-NH2; thioether N-14),630
3,CCCC[C@@H]1NC(=O)CSC[C@@H](C(=O)N[C@@H](CCN)C(N)=O)NC(=O)[C@H](CCC(=O)O)NC(=O)[C@H](C(C)C)NC(=O)[C@H](CC2CCCCC2)NC(=O)[C@H](CCN)NC(=O)[C@@H](CC(C)C)NC(=O)[C@H](CCCN)NC(=O)[C@H](Cc2ccc(OCc3cn(CCOCCOCCOCCOCCOCCOCCOCCOCCOCCOCCOCCNC(=O)CC[C@H](NC(=O)CCCCCCCCCCCCCCCCC(=O)O)C(=O)O)nn3)cc2)NC(=O)[C@H](Cc2ccc(-c3ccccc3)cc2)NC(=O)[C@H](Cc2ccc(OCC(=O)O)cc2)NC(=O)[C@H](Cc2cccc(C)c2)NC(=O)[C@H](CC(=O)O)NC(=O)[C@H](Cc2ccc(OCC(=O)O)cc2)NC1=O [Compound 1024] ({CH2CO}-[Nle]Y(Carboxymethyl)D[Phe(3-Me)]Y(Carboxymethyl)[Bip]Y(X1)[Orn][dL][Dab][Cha]VEC[Dab]-NH2; thioether N-14),400
4,Cc1cccc(C[C@@H]2NC(=O)[C@H](CC(=O)O)NC(=O)[C@H](Cc3ccc(OCc4cn(CCOCCOCCOCCOCCOCCOCCOCCOCCOCCOCCOCCNC(=O)CC[C@H](NC(=O)CCCCCCCCCCCCCCCCC(=O)O)C(=O)O)nn4)cc3)NC(=O)[C@H](CCN)NC(=O)CSC[C@@H](C(=O)N[C@@H](CCN)C(N)=O)NC(=O)[C@H](CCC(=O)O)NC(=O)[C@H](C(C)C)NC(=O)[C@H](CC3CCCCC3)NC(=O)[C@H](CCN)NC(=O)[C@@H](CC(C)C)NC(=O)[C@H](CCCN)NC(=O)[C@H](Cc3ccc(OCC(=O)O)cc3)NC(=O)[C@H](Cc3ccc(-c4ccccc4)cc3)NC(=O)[C@H](Cc3ccc(OCC(=O)O)cc3)NC2=O)c1 [Compound 1007] ({CH2CO}-[Dab]Y(X1)D[Phe(3-Me)]Y(Carboxymethyl)[Bip]Y(Carboxymethyl)[Orn][dL][Dab][Cha]VEC[Dab]-NH2; thioether N-14),510

# Next, values leading:
row,IC50 [nM],Compound
1,100,CCCC[C@@H]1NC(=O)CSC[C@@H](C(=O)N[C@@H](CCN)C(N)=O)NC(=O)[C@H](CCC(=O)O)NC(=O)[C@H](C(C)C)NC(=O)[C@H](CC2CCCCC2)NC(=O)[C@H](CCN)NC(=O)[C@@H](CC(C)C)NC(=O)[C@H](CCCN)NC(=O)[C@H](Cc2ccc(OCC(=O)O)cc2)NC(=O)[C@H](Cc2ccc(-c3ccccc3)cc2)NC(=O)[C@H](Cc2ccc(OCc3cn(CCOCCOCCOCCOCCOCCOCCOCCOCCOCCOCCOCCNC(=O)CC[C@H](NC(=O)CCCCCCCCCCCCCCCCC(=O)O)C(=O)O)nn3)cc2)NC(=O)[C@H](Cc2cccc(C)c2)NC(=O)[C@H](CC(=O)O)NC(=O)[C@H](Cc2ccc(OCC(=O)O)cc2)NC1=O [Compound 1016] ({CH2CO}-[Nle]Y(Carboxymethyl)D[Phe(3-Me)]Y(X1)[Bip]Y(Carboxymethyl)[Orn][dL][Dab][Cha]VEC[Dab]-NH2; thioether N-14)
2,140,Cc1cccc(C[C@@H]2NC(=O)[C@H](CC(=O)O)NC(=O)[C@H](Cc3ccc(OCC(=O)O)cc3)NC(=O)[C@H](CN)NC(=O)CSC[C@@H](C(=O)N[C@@H](CCN)C(=O)NCCOCCOCC(N)=O)NC(=O)[C@H](COCc3cn(CCOCCOCCOCCOCCOCCOCCOCCOCCOCCOCCOCCNC(=O)CC[C@H](NC(=O)CCCCCCCCCCCCCCCCC(=O)O)C(=O)O)nn3)NC(=O)[C@H](C(C)C)NC(=O)[C@H](CC3CCCCC3)NC(=O)[C@H](CCN)NC(=O)[C@@H](CC(C)C)NC(=O)[C@H](CCCN)NC(=O)[C@H](Cc3ccc(OCC(=O)O)cc3)NC(=O)[C@H](Cc3ccc(-c4ccccc4)cc3)NC(=O)[C@H](Cc3ccc(OCC(=O)O)cc3)NC2=O)c1 [Compound 1041] ({CH2CO}-[Dap]Y(Carboxymethyl)D[Phe(3-Me)]Y(Carboxymethyl)[Bip]Y(Carboxymethyl)[Orn][dL][Dab][Cha]VS(X1)C[Dab][AEEA]-NH2; thioether N-14)
3,140,Cc1cccc(C[C@@H]2NC(=O)[C@H](CC(=O)O)NC(=O)[C@H](Cc3ccc(OCC(=O)O)cc3)NC(=O)[C@H](CCCNC(=N)N)NC(=O)CSC[C@@H](C(=O)N[C@@H](CCN)C(N)=O)NC(=O)[C@H](CCC(=O)O)NC(=O)[C@H](C(C)C)NC(=O)[C@H](CC3CCCCC3)NC(=O)[C@H](CCN)NC(=O)[C@@H](CC(C)C)NC(=O)[C@H](CCCN)NC(=O)[C@H](Cc3ccc(OCc4cn(CCOCCOCCOCCOCCOCCOCCOCCOCCOCCOCCOCCNC(=O)CC[C@H](NC(=O)CCCCCCCCCCCCCCCCC(=O)O)C(=O)O)nn4)cc3)NC(=O)[C@H](Cc3ccc(-c4ccccc4)cc3)NC(=O)[C@H](Cc3ccc(OCC(=O)O)cc3)NC2=O)c1 [Compound 1002] ({CH2CO}-RY(Carboxymethyl)D[Phe(3-Me)]Y(Carboxymethyl)[Bip]Y(X1)[Orn][dL][Dab][Cha]VEC[Dab]-NH2; thioether N-14)
4,73,Cc1cccc(C[C@@H]2NC(=O)[C@H](CC(=O)O)NC(=O)[C@H](Cc3ccc(OCC(=O)O)cc3)NC(=O)[C@H](CCCNC(=N)N)NC(=O)CSC[C@@H](C(=O)N[C@@H](CCN)C(N)=O)NC(=O)[C@H](Cc3ccc(OCc4cn(CCOCCOCCOCCOCCOCCOCCOCCOCCOCCOCCOCCNC(=O)CC[C@H](NC(=O)CCCCCCCCCCCCCCCCC(=O)O)C(=O)O)nn4)cc3)NC(=O)[C@H](C(C)C)NC(=O)[C@H](CC3CCCCC3)NC(=O)[C@H](CCN)NC(=O)[C@@H](CC(C)C)NC(=O)[C@H](CCCN)NC(=O)[C@H](Cc3ccc(OCC(=O)O)cc3)NC(=O)[C@H](Cc3ccc(-c4ccccc4)cc3)NC(=O)[C@H](Cc3ccc(OCC(=O)O)cc3)NC2=O)c1 [Compound 1014] ({CH2CO}-RY(Carboxymethyl)D[Phe(3-Me)]Y(Carboxymethyl)[Bip]Y(Carboxymethyl)[Orn][dL][Dab][Cha]VY(X1)C[Dab]-NH2; thioether N-14)
5,110,Cc1cccc(C[C@@H]2NC(=O)[C@H](CC(=O)O)NC(=O)[C@H](Cc3ccc(OCC(=O)O)cc3)NC(=O)[C@H](CN)NC(=O)CSC[C@@H](C(=O)N[C@@H](CCN)C(N)=O)NC(=O)[C@H](CCC(=O)O)NC(=O)[C@H](C(C)C)NC(=O)[C@H](CC3CCCCC3)NC(=O)[C@H](CCN)NC(=O)[C@@H](CC(C)C)NC(=O)[C@H](CCCN)NC(=O)[C@H](Cc3ccc(OCC(=O)O)cc3)NC(=O)[C@H](Cc3ccc(-c4ccccc4)cc3)NC(=O)[C@H](Cc3ccc(OCc4cn(CCOCCOCCOCCOCCOCCOCCOCCOCCOCCOCCOCCNC(=O)CC[C@H](NC(=O)CCCCCCCCCCCCCCCCC(=O)O)C(=O)O)nn4)cc3)NC2=O)c1 [Compound 1004] ({CH2CO}-[Dap]Y(Carboxymethyl)D[Phe(3-Me)]Y(X1)[Bip]Y(Carboxymethyl)[Orn][dL][Dab][Cha]VEC[Dab]-NH2; thioether N-14)
6,120,CC(C)C[C@H]1NC(=O)[C@H](C)N(C)C(=O)[C@H](C(C)C)NC(=O)[C@H](Cc2ccc(-c3ccccc3)cc2)NC(=O)[C@H](C(C)C)NC(=O)[C@H](Cc2c[nH]c3ccccc23)NC(=O)[C@H](CC(=O)O)NC(=O)[C@H](Cc2ccncc2)NC(=O)[C@H](Cc2ccc(CNC(=O)CCCCCCCCCCC(=O)O)cc2)NC(=O)CSC[C@@H](C(N)=O)NC(=O)[C@H](CO)NC(=O)[C@H](C(C)C)NC(=O)[C@H](CC2CCCCC2)NC(=O)[C@H](CC(N)=O)NC1=O [Compound 1037] ({CH2CO}-[Phe(4-CH2NH2)](C12 diacid)[4Pal]DWV[Bip]V[NMeA][dL]N[Cha]VSC-NH2; thioether N-14)
